# Test results reported in patent US20060270648A1, “USE OF POLYAMINES WITH ANTIBIOTICS” (priority 2005, published 2006).
# Like-named read-outs stand apart in the source and are kept apart here.
# Assays:
# [1] = tested on: P. aeruginosa PAO1; experiment: MIC of antibiotics against P. aeruginosa PAO1 with or without polyamines; assay type: cell-based; details: for MIC values in the presence versus the absence of polyamines: hydrophobic antibiotics (FIG. 1)
# Description: (§1) Various strains of bacteria, including P. aeruginosa and e. coli were grown on Luria-Bertani (LB) agar/broth or Mueller-Hinton (MH) agar/broth. […] The antibiotics, chemicals, and/or polyamines were dissolved in double distilled water or solvent and thereafter filtered through a 0.4 μm disposable membranes.
# (§2) The MIC values of the strains associated with various combinations of polyamines and antibiotics were determined using standard two-fold agar dilutions techniques and broth dilutions techniques in Mueller-Hinton broth. The lowest concentration of drug with no visible turbidity was deemed the MIC.
# [2] = tested on: E. coli (K10, K12, C921-61); experiment: MIC of antibiotics against E. coli strains with or without polyamines (FIG. 3); assay type: cell-based; details: E. coli K10, K12, C921-61 and S. typhimurium LT2
# Description: as §1, §2
# [3] = tested on: Salmonella typhimurium LT2; details: for MICs in the indicated concentrations (mM) of polyamines: Spermine (1 mM): with 1 mM spermine; for MICs in the indicated concentrations (mM) of polyamines: Spermidine (20 mM): with 20 mM spermidine;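 on all read-outs here: Two-fold agar or broth dilution in Mueller-Hinton broth, MIC taken as lowest drug concentration without visible turbidity, tested alone or combined with polyamines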
# Description: as §1, §2
# [4] = tested on: Salmonella typhimurium LT2; experiment: microbe, parasite or virus in culture; details: Salmonella enterica, read-out: MICs in the indicated concentrations (mM) of polyamines: No add;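 further: Two-fold agar or broth dilution in Mueller-Hinton broth, MIC taken as lowest drug concentration without visible turbidity, tested alone or combined with polyamines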
# Description: as §1, §2
# [5] = tested on: methicillin resistant Staphylococcus aureus (MRSA) Mu50; experiment: MIC of antibiotics against MRSA Mu50 with or without spermine; assay type: cell-based; details: for MICs in the presence or absence of spermine (1 mM): Spermine: with 1 mM spermine; for MIC: Staphylococcus aureus, MRSA, no spermine, read-out: MICs in the presence or absence of spermine (1 mM): No add
# [6] = tested on: outer membrane permeability; experiment: Outer membrane permeabilization assay (β-lactamase activity in whole cells or released into suspension); assay type: cell-based
# Description: The β-lactamase activity was determined by a spectrophotometric method using nitrocefin as a substrate. After the β-lactamase was extracted from the cells, the β-lactamase activity was monitored by absorbance changes in wavelength at 486 nm with a molar extinction coefficient of 20500. The extent of hydrolysis was a reflection of the amount of enzyme remaining uninhibited.
# An outer membrane permeabilization assay was performed by examining the release of the chromosomally encoded β-lactamase. Briefly, stationary phase cells were diluted 1:59 into 20 mL pre-warmed MMP broth and cultured in an incubator at 350 rpm and at 37 C for 5 hours. After carbenicillin (200 μg/mL) was added to induce β-lactamase activity, the culture was incubated for additional 5 hours. The cells were harvested by centrifugation at 5,000×g for 10 minutes and washed once with 0.05M sodium phosphate buffer at pH 7.2. The cell pellet was resuspended in 5 mL of the same buffer and divided into 1 mL aliquots. […] […] The reaction mixtures were incubated at room temperature for 5 minutes and immediately centrifuged at full speed (15000×g) for 20 minutes and the supernatant was used for β-lactamase sources. β-lactamase activity was determined as described above using 300 μL of the supernatant.
# [7] = tested on: E. coli K10; experiment: MIC of carbenicillin against E. coli K10 with divalent ions or salt and polyamines; assay type: cell-based; details: Escherichia coli, read-out: MICs to carbenicillin
# Description: as §1, §2
# [8] = tested on: MRSA Staphylococcus aureus 700699; experiment: MIC of antibiotics against MRSA Staphylococcus aureus 700699 with or without spermine; assay type: cell-based; details: for MIC: Staphylococcus aureus, MRSA, no spermine, read-out: MICs in the absence or presence of spermine: No add; for MICs in the absence or presence of spermine: Spermine (1 mM): with 1 mM spermine
# [9] = tested on: P. aeruginosa PAO1; experiment: Time killing assay of P. aeruginosa PAO1 in human serum (FIG. 4); assay type: cell-based
# Description: Time-killing assays were performed for various bacteria samples. Briefly, the tested bacteria were grown to mid-log phase in Mueller-Hinton broth media. […] As a control group, cells were diluted in a sodium phosphate without any additional compounds. Aliquots were withdrawn at specific time intervals and spread on LB agar plates and incubated overnight at 37 C. The percent of colonies that survived were determined relative to the control.
compound,measurement,setting,value
CO[C@@H]1[C@@H](OC(N)=O)[C@@H](O)[C@H](Oc2ccc3c(O)c(NC(=O)c4ccc(O)c(CC=C(C)C)c4)c(=O)oc3c2C)OC1(C)C [Novobiocin],MIC values in the presence versus the absence of polyamines,[1],identical
same,susceptibility with the combination of polyamines and antibiotics,[2],improved susceptibility
same,MICs in the indicated concentrations (mM) of polyamines: Spermine (1 mM),[3],1024 µg/mL
same,MICs in the indicated concentrations (mM) of polyamines: Spermidine (20 mM),[3],256 µg/mL
same,MIC,[4],> 1020 µg/mL
Polymyxin B,MICs in the presence or absence of spermine (1 mM): Spermine,[5],64 µg/mL
same,β-lactamase activities detected in the whole cells,[6]; 100 μg/mL applied to the cell suspension (FIG. 5),significant activities
CC1(C)S[C@@H]2[C@H](NC(=O)C(C(=O)O)c3ccccc3)C(=O)N2[C@H]1C(=O)O (stereo partly drawn) [Carbenicillin],MIC,[5],256 µg/mL
same,MICs in the presence or absence of spermine (1 mM): Spermine,[5],4 µg/mL
same,MIC,"[7]; K10, MHB + 1 mM CaCl2, Spermidine (10 mM)",2 µg/mL
same,MIC,"[7]; K10, MHB + 1 mM CaCl2, Spermine (1 mM)",1 µg/mL
same,MIC,"[7]; K10, MHB + 1 mM CaCl2, no polyamine",16 µg/mL
same,MIC,"[7]; K10, MHB + 1 mM MgSO4, Spermidine (10 mM)",4 µg/mL
same,MIC,"[7]; K10, MHB + 1 mM MgSO4, Spermine (1 mM)",1 µg/mL
same,MIC,"[7]; K10, MHB + 1 mM MgSO4, no polyamine",16 µg/mL
same,MIC,"[7]; K10, MHB + 3 mM CaCl2, Spermidine (10 mM)",4 µg/mL
same,MIC,"[7]; K10, MHB + 3 mM CaCl2, Spermine (1 mM)",4 µg/mL
same,MIC,"[7]; K10, MHB + 3 mM CaCl2, no polyamine",16 µg/mL
same,MIC,"[7]; K10, MHB + 3 mM MgSO4, Spermidine (10 mM)",4 µg/mL
same,MIC,"[7]; K10, MHB + 3 mM MgSO4, Spermine (1 mM)",4 µg/mL
same,MIC,"[7]; K10, MHB + 3 mM MgSO4, no polyamine",16 µg/mL
same,MIC,"[7]; K10, MHB + 100 mM NaCl, Spermidine (10 mM)",4 µg/mL
same,MIC,"[7]; K10, MHB + 100 mM NaCl, Spermine (1 mM)",4 µg/mL
same,MIC,"[7]; K10, MHB + 100 mM NaCl, no polyamine",16 µg/mL
same,MIC,"[7]; K10, MHB + 150 mM NaCl, Spermidine (10 mM)",4 µg/mL
same,MIC,"[7]; K10, MHB + 150 mM NaCl, Spermine (1 mM)",4 µg/mL
same,MIC,"[7]; K10, MHB + 150 mM NaCl, no polyamine",16 µg/mL
same,MIC,"[7]; K10, MHB medium, no supplement, Spermidine (10 mM)",4 µg/mL
same,MIC,"[7]; K10, MHB medium, no supplement, Spermine (1 mM)",1 µg/mL
same,MIC,"[7]; K10, MHB medium, no supplement, no polyamine",16 µg/mL
same,MIC,[8],256 µg/mL
same,MICs in the absence or presence of spermine: Spermine (1 mM),[8],4 µg/mL
same,susceptibility with the combination of polyamines and antibiotics,[2],improved susceptibility
same,growth of P. aeruginosa PAO1 in human serum,[9]; 16 μg/mL carbenicillin alone,"initial inhibition, this inhibition was followed by a full recovery of growth"
same,percent of the inoculants killed in human serum,"[9]; 2 mM spermine added along with 16 μg/mL carbenicillin, 24 hours",more than 99%
same,MICs in the indicated concentrations (mM) of polyamines: Spermine (1 mM),[3],1 µg/mL
same,MICs in the indicated concentrations (mM) of polyamines: Spermidine (20 mM),[3],2 µg/mL
same,MIC,[4],8 µg/mL
NCCCCNCCCN [Spermidine],MICs to carbenicillin in the indicated concentration of polyamines,[1]; 0 mM polyamine,64 µg/mL
same,MICs to carbenicillin in the indicated concentration of polyamines,[1]; 0.5 mM polyamine,32 µg/mL
same,MICs to carbenicillin in the indicated concentration of polyamines,[1]; 1 mM polyamine,16 µg/mL
same,MICs to carbenicillin in the indicated concentration of polyamines,[1]; 5 mM polyamine,16 µg/mL
same,MICs to carbenicillin in the indicated concentration of polyamines,[1]; 10 mM polyamine,8 µg/mL
same,MICs to carbenicillin in the indicated concentration of polyamines,[1]; 20 mM polyamine,4 µg/mL
same,β-lactamase activity detected,[6]; 20 mM (FIG. 7),only a very low level
O=C(N[C@H](CO)[C@H](O)c1ccc([N+](=O)[O-])cc1)C(Cl)Cl [Chloramphenicol],MIC,[5],8 µg/mL
same,MICs in the presence or absence of spermine (1 mM): Spermine,[5],2 µg/mL
same,MIC,[8],8 µg/mL
same,MICs in the absence or presence of spermine: Spermine (1 mM),[8],2 µg/mL
same,susceptibility with the combination of polyamines and antibiotics,[2],improved susceptibility
same,MICs in the indicated concentrations (mM) of polyamines: Spermine (1 mM),[3],1 µg/mL
same,MICs in the indicated concentrations (mM) of polyamines: Spermidine (20 mM),[3],1 µg/mL
same,MIC,[4],2 µg/mL
CC(=O)O[C@H]1C[C@@]2(C)[C@@H](C[C@@H](O)[C@H]3[C@@]4(C)CC[C@@H](O)[C@@H](C)[C@@H]4CC[C@@]32C)/C1=C(\CCC=C(C)C)C(=O)O [Fusidic acid],MIC values in the presence versus the absence of polyamines,[1],identical
same,susceptibility with the combination of polyamines and antibiotics,[2],improved susceptibility
same,MICs in the indicated concentrations (mM) of polyamines: Spermine (1 mM),[3],1024 µg/mL
same,MICs in the indicated concentrations (mM) of polyamines: Spermidine (20 mM),[3],1024 µg/mL
same,MIC,[4],> 1020 µg/mL
CC1(C)S[C@@H]2[C@H](NC(=O)[C@H](NC(=O)N3CCNC3=O)c3ccccc3)C(=O)N2[C@H]1C(=O)O [Azlocillin],MIC,[5],16 µg/mL
same,MICs in the presence or absence of spermine (1 mM): Spermine,[5],0.5 µg/mL
same,MIC,[8],16 µg/mL
same,MICs in the absence or presence of spermine: Spermine (1 mM),[8],0.5 µg/mL
same,susceptibility with the combination of polyamines and antibiotics,[2],improved susceptibility
same,MICs in the indicated concentrations (mM) of polyamines: Spermine (1 mM),[3],4 µg/mL
same,MICs in the indicated concentrations (mM) of polyamines: Spermidine (20 mM),[3],1 µg/mL
same,MIC,[4],16 µg/mL
O=C(O)CN(CCN(CC(=O)O)CC(=O)O)CC(=O)O [EDTA],release of periplasmic β-lactamase into the suspension solution,[6]; 0.5 mM (FIG. 6),can be detected
same,release of periplasmic β-lactamase into the suspension solution,[6]; 1 mM (FIG. 6),increased
CC[C@H]1OC(=O)[C@H](C)[C@@H](O[C@H]2C[C@@](C)(OC)[C@@H](O)[C@H](C)O2)[C@H](C)[C@@H](O[C@@H]2O[C@H](C)C[C@H](N(C)C)[C@H]2O)[C@](C)(O)C[C@@H](C)C(=O)[C@H](C)[C@@H](O)[C@]1(C)O [Erythromycin],MIC values in the presence versus the absence of polyamines,[1],identical
same,susceptibility with the combination of polyamines and antibiotics,[2],improved susceptibility
same,MICs in the indicated concentrations (mM) of polyamines: Spermine (1 mM),[3],32 µg/mL
same,MICs in the indicated concentrations (mM) of polyamines: Spermidine (20 mM),[3],64 µg/mL
same,MIC,[4],64 µg/mL
CCN1CCN(C(=O)N[C@@H](C(=O)N[C@@H]2C(=O)N3[C@@H]2SC(C)(C)[C@@H]3C(=O)O)c2ccccc2)C(=O)C1=O [Piperacillin],MIC,[5],32 µg/mL
same,MICs in the presence or absence of spermine (1 mM): Spermine,[5],2 µg/mL
same,MIC,[8],32 µg/mL
same,MICs in the absence or presence of spermine: Spermine (1 mM),[8],2 µg/mL
same,susceptibility with the combination of polyamines and antibiotics,[2],improved susceptibility
same,MICs in the indicated concentrations (mM) of polyamines: Spermine (1 mM),[3],0.5 µg/mL
same,MICs in the indicated concentrations (mM) of polyamines: Spermidine (20 mM),[3],0.25 µg/mL
same,MIC,[4],4 µg/mL
